The values that follow come from patent publication US20150344540A1, “NOVEL GLP-1 RECEPTOR AGONISTS WITH CHOLESTEROL EFFLUX ACTIVITY” (NOVO NORDISK A/S, priority 2012, published 2015).

The test system of data set [1] is Mouse monocyte/macrophage cell line, RAW 264.7. The data set can be described thus: Cholesterol efflux assay (3H-cholesterol, macrophage cell line). The format is cell-based. Particulars: RAW 264.7, 4 hrs incubation, 0.1% human serum albumin; for 4 h Cholesterol Efflux Emax: ABCA1-mediated efflux.
A short description of data set [2]: Pharmacokinetics in mini-pigs after i.v. administration. Particulars: female, Göttingen, minipig, iv, 5 nmol/kg. The text has this: The aim of the study is to assess the pharmacokinetic properties of the compounds of the invention, in mini-pigs.
Göttingen mini-pigs female, 15-20 kg, purchased from Ellegaard Mini-pigs, Denmark, were housed in the Animal Unit, Novo Nordisk A/S and were kept and handled according to normal procedure in the Animal Unit. After minimum 2 weeks of acclimatization two permanent central venous catheters were implemented in vena cava caudalis in each animal. After surgery the animals were in their normal individual pens during the pharmacokinetic experiments.
Intravenous injections were given through the central short catheter, which was flushed with min 10 ml of sterile saline post administration. The test substance was dosed at 5 nmol/kg, N=3, in a volume of 0.05 ml/kg.
On day 1 the catheters are coupled to extension tubes, which will be removed at the end of day 1.
Samples were kept on wet ice until centrifugation (10 min, 4° C., 1942 g). Afterwards, plasma (min. 100 μl) was transferred immediately to Micronic tubes and kept at −20° C. until analysis. The plasma samples were analysed by an immunoaasay described below.
The plasma concentrations of the peptides with intact N-terminus were determined using a Luminescence Oxygen Chanelling Immuno-assay (LOCI). The donor beads were coated with streptavidin, while acceptor beads were conjugated with a monoclonal antibody recognizing a mid-/C-terminal epitope of the peptide. The other monoclonal antibody, specific for the N-terminus, was biotinylated. The three reactants were combined with the analyte and formed a two-sited immuno-complex. Illumination of the complex released singlet oxygen atoms from the donor beads, which were channeled into the acceptor beads and triggered chemi-luminescence which was measured in an Envision plate reader. The amount of light was proportional to the concentration of the compound.
Plasma concentration-time profiles was analysed by a non-compartmental pharmacokinetics analysis using Phoenix (Pharsight Inc., Mountain View, Calif., USA). Calculations were performed using individual concentration-time values from each animal.

The mark [3] stands for this setting: plasma, T1/2 Mean Value, Göttingen mini-pigs, N=3.

Each structure is given as a SMILES string. Where a SMILES comes first, the peptide text is derived from it. [ ]: non-standard residue; d: D form. Aib = CC(C)(N)C(=O)O

For `CC[C@H](C)[C@H](NC(=O)[C@H](Cc1ccccc1)NC(=O)[C@H](CCC(=O)O)NC(=O)[C@H](CCCCN)NC(=O)[C@@H](NC(=O)[C@H](C)NC(=O)[C@H](CCC(=O)O)NC(=O)CNC(=O)[C@H](CCC(=O)O)NC(=O)[C@H](CC(C)C)NC(=O)[C@H](Cc1ccc(O)cc1)NC(=O)[C@H](CO)NC(=O)[C@H](CO)NC(=O)[C@@H](NC(=O)[C@H](CC(=O)O)NC(=O)[C@H](CO)NC(=O)[C@@H](NC(=O)[C@H](Cc1ccccc1)NC(=O)[C@@H](NC(=O)CNC(=O)[C@H](CCC(=O)O)NC(=O)C(C)(C)NC(=O)[C@@H](N)Cc1c[nH]cn1)[C@@H](C)O)[C@@H](C)O)C(C)C)C(C)C)C(=O)N[C@@H](C)C(=O)N[C@@H](Cc1c[nH]c2ccccc12)C(=O)N[C@@H](CC(C)C)C(=O)N[C@H](C(=O)N[C@@H](CCC(=O)O)C(=O)N[C@@H](CCCCN)C(=O)NC(C)(C)C(=O)N[C@@H](CCCCN)C(=O)N[C@@H](CCC(=O)O)C(=O)N[C@@H](Cc1c[nH]cn1)C(=O)N[C@@H](CC(C)C)C(N)=O)C(C)C` [Compound 4, [Aib8,Glu23,Val25,Glu34,Lys35,Aib36,Lys37]-GLP-1-(7-37)-peptidyl-Glu-His-Leu amide] (H-H[Aib]EGTFTSDVSSYLEGEAVKEFIAWLVEK[Aib]KEHL-NH2), the “4 h Cholesterol Efflux Emax” value in data set [1] is listed as 100%. Also, in data set [2] (plasma), the C0 is 72.1 nM, the distribution volume (Vd) stood at 0.1 L/kg and the clearance is 3.31 mL/h/kg. The compound also had a half-life in data set [2] (plasma, T1/2, mini-pigs) of 20.6 h. Moreover, the half-life in data set [2] (setting [3]) is 20.6 h.

As to `CC[C@H](C)[C@H](NC(=O)[C@H](Cc1ccccc1)NC(=O)[C@H](CCC(=O)O)NC(=O)[C@H](CCCCN)NC(=O)[C@@H](NC(=O)[C@H](C)NC(=O)[C@H](CCC(=O)O)NC(=O)CNC(=O)[C@H](CCC(=O)O)NC(=O)[C@H](CC(C)C)NC(=O)[C@H](Cc1ccc(O)cc1)NC(=O)[C@H](CO)NC(=O)[C@H](CO)NC(=O)[C@@H](NC(=O)[C@H](CC(=O)O)NC(=O)[C@H](CO)NC(=O)[C@@H](NC(=O)[C@H](Cc1ccccc1)NC(=O)[C@@H](NC(=O)CNC(=O)[C@H](CCC(=O)O)NC(=O)C(C)(C)NC(=O)[C@@H](N)Cc1c[nH]cn1)[C@@H](C)O)[C@@H](C)O)C(C)C)C(C)C)C(=O)N[C@@H](C)C(=O)N[C@@H](Cc1c[nH]c2ccccc12)C(=O)N[C@@H](CC(C)C)C(=O)N[C@H](C(=O)N[C@@H](CCC(=O)O)C(=O)N[C@@H](CCCCN)C(=O)N[C@H](C(=O)N[C@@H](CCCCN)C(=O)N[C@@H](CCC(=O)O)C(=O)N[C@@H](Cc1ccccc1)C(=O)N[C@@H](CC(C)C)C(N)=O)C(C)C)C(C)C` [Compound 6, [Aib8,Glu23,Val25,Glu34,Lys35,Val36,Lys37]-GLP-1-(7-37)-peptidyl-Glu-Phe-Leu amide] (H-H[Aib]EGTFTSDVSSYLEGEAVKEFIAWLVEKVKEFL-NH2), the “4 h Cholesterol Efflux Emax” value in data set [1] is 92%. In data set [2] (plasma), this compound had a C0 of 89.5 nM, a Vd of 0.0904 L/kg and a clearance of 1.64 mL/h/kg. Moreover, the half-life in data set [2] (plasma, T1/2, mini-pigs) was 38.7 h. This compound also had a half-life in data set [2] (setting [3]) of 38.7 h.

On to `CC[C@H](C)[C@H](NC(=O)[C@H](Cc1ccccc1)NC(=O)[C@H](CCC(=O)O)NC(=O)[C@H](CCCCN)NC(=O)[C@@H](NC(=O)[C@H](C)NC(=O)[C@H](CCC(N)=O)NC(=O)CNC(=O)[C@H](CCC(=O)O)NC(=O)[C@H](CC(C)C)NC(=O)[C@H](Cc1ccc(O)cc1)NC(=O)[C@H](CO)NC(=O)[C@H](CO)NC(=O)[C@@H](NC(=O)[C@H](CC(=O)O)NC(=O)[C@H](CO)NC(=O)[C@@H](NC(=O)[C@H](Cc1ccccc1)NC(=O)[C@@H](NC(=O)CNC(=O)[C@H](CCC(=O)O)NC(=O)C(C)(C)NC(=O)[C@@H](N)Cc1c[nH]cn1)[C@@H](C)O)[C@@H](C)O)C(C)C)C(C)C)C(=O)N[C@@H](C)C(=O)N[C@@H](Cc1c[nH]c2ccccc12)C(=O)N[C@@H](CC(C)C)C(=O)N[C@H](C(=O)N[C@@H](CCC(=O)O)C(=O)N[C@@H](CCCCN)C(=O)NC(C)(C)C(=O)N[C@@H](CCCCN)C(=O)N[C@@H](CCC(=O)O)C(=O)N[C@@H](Cc1ccccc1)C(=O)N[C@@H](CC(C)C)C(N)=O)C(C)C` [Compound 7] (H-H[Aib]EGTFTSDVSSYLEGQAVKEFIAWLVEK[Aib]KEFL-NH2), for which the “4 h Cholesterol Efflux Emax” value in data set [1] was 90%. In data set [2] (plasma), this compound gave a C0 of 51.2 nM, a volume of distribution (Vd) of 0.146 L/kg and a clearance of 3.71 mL/h/kg. The compound further gave a half-life in data set [2] (plasma, T1/2, mini-pigs) of 27.3 h. Further, in data set [2] (setting [3]), the half-life was 27.3 h.

Regarding `CC[C@H](C)[C@H](NC(=O)[C@H](Cc1ccccc1)NC(=O)[C@H](CCC(=O)O)NC(=O)[C@H](CCCCN)NC(=O)[C@@H](NC(=O)[C@H](C)NC(=O)[C@H](CCC(=O)O)NC(=O)CNC(=O)[C@H](CCC(=O)O)NC(=O)[C@H](CC(C)C)NC(=O)[C@H](Cc1ccc(O)cc1)NC(=O)[C@H](CO)NC(=O)[C@H](CO)NC(=O)[C@@H](NC(=O)[C@H](CC(=O)O)NC(=O)[C@H](CO)NC(=O)[C@@H](NC(=O)[C@H](Cc1ccccc1)NC(=O)[C@@H](NC(=O)CNC(=O)[C@H](CCC(=O)O)NC(=O)C(C)(C)NC(=O)[C@@H](N)Cc1c[nH]cn1)[C@@H](C)O)[C@@H](C)O)C(C)C)C(C)C)C(=O)N[C@@H](C)C(=O)N[C@@H](Cc1c[nH]c2ccccc12)C(=O)N[C@@H](CC(C)C)C(=O)N[C@H](C(=O)N[C@@H](CCC(=O)O)C(=O)N[C@@H](CCCCN)C(=O)NC(C)(C)C(=O)N[C@@H](CCCCN)C(=O)N[C@@H](CCC(=O)O)C(=O)N[C@@H](Cc1ccccc1)C(=O)N[C@@H](CC(C)C)C(=O)O)C(C)C` [Compound 16, [Aib8,Glu23,Val25,Glu34,Lys35,Aib36,Lys37]-GLP-1-(7-37)-peptidyl-Glu-Phe-Leu], the “4 h Cholesterol Efflux Emax” value in data set [1] was 105%. Also, the EC50 in data set [1] (read-out: 4 h Cholesterol Efflux EC50, ABCA1-mediated efflux (CPT-cAMP induced minus non-induced)) turned out to be 680 nM. In data set [2] (in vivo), this compound gave a C0 of 123 nM, a Vd of 0.0889 L/kg, a clearance of 1.44 mL/h/kg and a half-life of 42.8 h.

As to `CC[C@H](C)[C@H](NC(=O)[C@H](Cc1ccccc1)NC(=O)[C@H](CCC(=O)O)NC(=O)[C@H](CCCCN)NC(=O)[C@@H](NC(=O)[C@H](CCCCN)NC(=O)[C@H](CCC(=O)O)NC(=O)CNC(=O)[C@H](CCC(=O)O)NC(=O)[C@H](CC(C)C)NC(=O)[C@H](Cc1ccc(O)cc1)NC(=O)[C@H](CO)NC(=O)[C@H](CO)NC(=O)[C@@H](NC(=O)[C@H](CC(=O)O)NC(=O)[C@H](CO)NC(=O)[C@@H](NC(=O)[C@H](Cc1ccccc1)NC(=O)[C@@H](NC(=O)CNC(=O)[C@H](CCC(=O)O)NC(=O)C(C)(C)NC(=O)[C@@H](N)Cc1c[nH]cn1)[C@@H](C)O)[C@@H](C)O)C(C)C)C(C)C)C(=O)N[C@@H](CCC(=O)O)C(=O)N[C@@H](Cc1c[nH]c2ccccc12)C(=O)N[C@@H](CC(C)C)C(=O)N[C@H](C(=O)N[C@@H](CCC(=O)O)C(=O)N[C@@H](CCCCN)C(=O)NC(C)(C)C(=O)N[C@@H](CCCCN)C(=O)N[C@@H](CCC(=O)O)C(=O)N[C@@H](Cc1ccccc1)C(=O)N[C@@H](CC(C)C)C(N)=O)C(C)C` [Compound 49, [Aib8,Glu23,Lys24,Val25,Glu30,Glu34,Lys35,Aib36,Lys37]-GLP-1-(7-37)-peptidyl-Glu-Phe-Leu amide] (H-H[Aib]EGTFTSDVSSYLEGEKVKEFIEWLVEK[Aib]KEFL-NH2), the “4 h Cholesterol Efflux Emax” value in data set [1] came out at 123%. In data set [2] (plasma), this compound had a C0 of 131 nM, a volume of distribution (Vd) of 0.0878 L/kg and a clearance of 2.68 mL/h/kg. The half-life in data set [2] (setting [3]) was 24 h.

On to `CC[C@H](C)[C@H](NC(=O)[C@H](Cc1ccccc1)NC(=O)[C@H](CCC(=O)O)NC(=O)[C@H](CCCCN)NC(=O)[C@@H](NC(=O)[C@H](C)NC(=O)[C@H](CCC(=O)O)NC(=O)CNC(=O)[C@H](CCC(=O)O)NC(=O)[C@H](CC(C)C)NC(=O)[C@H](Cc1ccc(O)cc1)NC(=O)[C@H](CO)NC(=O)[C@H](CO)NC(=O)[C@@H](NC(=O)[C@H](CC(=O)O)NC(=O)[C@H](CO)NC(=O)[C@@H](NC(=O)[C@H](Cc1ccccc1)NC(=O)[C@@H](NC(=O)CNC(=O)[C@H](CCC(=O)O)NC(=O)C(C)(C)NC(=O)[C@@H](N)Cc1c[nH]cn1)[C@@H](C)O)[C@@H](C)O)C(C)C)C(C)C)C(=O)N[C@@H](C)C(=O)N[C@@H](Cc1c[nH]c2ccccc12)C(=O)N[C@@H](CC(C)C)C(=O)N[C@H](C(=O)N[C@@H](CCC(=O)O)C(=O)N[C@@H](CCCCN)C(=O)NC(C)(C)C(=O)N[C@@H](CCCCN)C(=O)N[C@@H](CCC(=O)O)C(=O)N[C@@H](Cc1ccccc1)C(=O)N[C@@H](CC(C)C)C(=O)N[C@@H](CCC(=O)O)C(=O)N[C@@H](CCCCN)C(=O)N[C@H](C(N)=O)C(C)C)C(C)C` [Compound 54, [Aib8,Glu23,Val25,Glu34,Lys35,Aib36,Lys37]-GLP-1-(7-37)-peptidyl-Glu-Phe-Leu-Glu-Lys-Val amide], for which the “4 h Cholesterol Efflux Emax” value in data set [1] is reported as 121%. Also, in data set [2] (plasma), the C0 is 136 nM, the Vd came to 0.0802 L/kg and the clearance was 1.31 mL/h/kg. This compound also gave a half-life in data set [2] (setting [3]) of 40.7 h.

The term Vd denotes a proportionality between amount in the body and measured concentration, not a real space. Lower therefore signals confinement near the circulation. Broadly, the clearance is the rate of elimination divided by the concentration. The low end stands for inefficient removal, the high end for efficient removal. In general, half-life refers to the time needed for the level to fall by half in the phase considered. Lower therefore signals fast loss. One may read the EC50 as the midpoint of the concentration-response curve.
